# According to patent publication US20260102377A1, “COMPOSITIONS AND METHODS FOR TREATING MYASTHENIA GRAVIS” (priority 2022, published 2026):
# Values joined by “and” are separate entries in the source; they are usually repeats but may differ in a detail not shown here. Equal values may be shown once.
# Test system: EAMG rats
# Test: Grip strength test after single dose of Mestinon and CIC-1 inhibitor alone or in combination
# Assay type: in vivo, rat
# Conditions: per oral, 45 minutes post dosing, 0.375 mg/kg Mestinon, 20 mg/kg NMD670 or both
# Method: To induce EAMG, 250 μL of emulsion of Complete Freund's Adjuvant, consisting of heat-inactivated Mycobacterium tuberculosis H37Ra in non-metabolizable oils, together with Phosphate-Buffered Saline (PBS) and 80 μg of the extracellular α-domain peptide fragment of the human nicotinic acetylcholine receptor (antigen) was injected subcutaneously in seven-week-old, anaesthetized Lewis rats. The disease-inducing antigen was supplied by the Hellenic Pasteur institute3. The emulsion was deposited at the tail base, left hindleg, and right foreleg. After injection, animals were allowed to recover and returned to their home cage maintained in ventilated racks under controlled temperature (20 to 22° C.) and humidity (˜55%) control, under a 12-h light/12-h dark cycle with food and water provided ad libitum. The animals had pathogen free status and the housing and changing system was designed to assure that the pathogen free status was preserved during the study. The EAMG rats were observed, weighed, and scored for MG symptoms weekly until symptoms of MG developed, whereafter animals were observed daily.
# In EAMG animals with severe MG symptoms the effects of CIC-1 inhibitor and Mestinon (pyridostigmine) alone or in combination was assessed. […] The study was blinded to both the experimenter and during subsequent analysis. Animals were subjected to grip strength test before compound administration, as described above and then dosed per oral with either 0.375 mg/kg pyridostigmine bromide (Mestinon) (CAS-no 101-26-8), 20 mg/kg NMD670 or a combination of both pyridostigmine and NMD670. Grip strength was tested 45 minutes post dosing. […] The change in grip strengths was calculated for individual animals relative to the results obtained prior to administration of test article and then averaged.
# Grip strength was measured on a BIOSEB BIO-GT3 Grip strength meter (force transducer, S/N 180271). […] Care was taken to ensure that the force recorded reflected the grip strength of the rat and not the force of the pulls conducted by the operator. […]
smiles,measurement,value
"CN(C)C(=O)Oc1ccc[n+](C)c1 [Mestinon, pyridostigmine bromide, reference compound]",Increase in Pulled Force (%),5±4% and 5.3 ± 3.8%
